# Assay results from the supplement of paper PMC10307832.
# What was measured:
# Assay in all cases: relative viability (nuclei count vs DMSO), 5 days (fraction); higher = more cells survive
# [1] = test system: NCI-H1623
# Procedure, shortened: (§1)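 Cells from lung cancer lines were seeded into 1536-well plates and, one day later, dosed by pin tool. Treatments were either a single drug or a fixed dose of an anchor drug with five library-drug doses (not always all listed) in √10 steps. After 5 days, nuclei were stained in a one-step fixation (final 0.05% Triton X-100, 1% formaldehyde, 1 ug/ml Hoechst) and counted on 4× images, and relative viability is the treated-to-vehicle nuclei ratio, as the median of duplicate plates.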
# [2] = test system: NCI-H1355
# Procedure, shortened: as §1
# [3] = test system: LCLC-97TM1
# Procedure, shortened: as §1
# [4] = test system: NCI-H596
# Procedure, shortened: as §1
# [5] = test system: NCI-H2342
# Procedure, shortened: as §1
# [6] = test system: NCI-H1437
# Procedure, shortened: as §1
smiles,measurement,setting,value
Cc1cn(-c2cc(NC(=O)c3ccc(C)c(Nc4nccc(-c5cccnc5)n4)c3)cc(C(F)(F)F)c2)cn1 [Nilotinib] + CCNC(=O)c1noc(-c2cc(C(C)C)c(O)cc2O)c1-c1ccc(CN2CCOCC2)cc1 [Luminespib] (partner 0.01 µM),relative viability,[1]; first compound 0.001 µM,0.43
same,relative viability,[1]; first compound 0.003162 µM,0.516
same,relative viability,[1]; first compound 0.01 µM,0.63
same,relative viability,[1]; first compound 0.03162 µM,0.498
same,relative viability,[1]; first compound 0.1 µM,0.544
same,relative viability,[2]; first compound 0.001 µM,0.542
same,relative viability,[2]; first compound 0.003162 µM,0.7
same,relative viability,[2]; first compound 0.01 µM,0.644
same,relative viability,[2]; first compound 0.03162 µM,0.549
same,relative viability,[2]; first compound 0.1 µM,0.654
same,relative viability,[3]; first compound 0.001 µM,0.795
same,relative viability,[3]; first compound 0.003162 µM,0.868
same,relative viability,[3]; first compound 0.01 µM,0.741
same,relative viability,[3]; first compound 0.03162 µM,0.607
same,relative viability,[3]; first compound 0.1 µM,0.641
same,relative viability,[4]; first compound 0.001 µM,1.16
same,relative viability,[4]; first compound 0.003162 µM,1.05
same,relative viability,[4]; first compound 0.01 µM,1.01
same,relative viability,[4]; first compound 0.03162 µM,0.655
same,relative viability,[4]; first compound 0.1 µM,0.833
same,relative viability,[5]; first compound 0.001 µM,0.595
same,relative viability,[5]; first compound 0.003162 µM,0.675
same,relative viability,[5]; first compound 0.01 µM,0.698
same,relative viability,[5]; first compound 0.03162 µM,0.586
same,relative viability,[5]; first compound 0.1 µM,0.673
same,relative viability,[6]; first compound 0.001 µM,1.11
same,relative viability,[6]; first compound 0.003162 µM,1.3
same,relative viability,[6]; first compound 0.01 µM,1.26
same,relative viability,[6]; first compound 0.03162 µM,0.885
same,relative viability,[6]; first compound 0.1 µM,0.934
CN1CCN(CCOc2cc(OC3CCOCC3)c3c(Nc4c(Cl)ccc5c4OCO5)ncnc3c2)CC1 [Saracatinib] + CCNC(=O)c1noc(-c2cc(C(C)C)c(O)cc2O)c1-c1ccc(CN2CCOCC2)cc1 [Luminespib] (partner 0.01 µM),relative viability,[1]; first compound 0.02 µM,0.527
same,relative viability,[1]; first compound 0.2 µM,0.383
same,relative viability,[1]; first compound 0.6325 µM,0.522
same,relative viability,[1]; first compound 2 µM,0.433
same,relative viability,[2]; first compound 0.02 µM,0.732
same,relative viability,[2]; first compound 0.2 µM,0.544
same,relative viability,[2]; first compound 0.6325 µM,0.697
same,relative viability,[2]; first compound 2 µM,0.634
same,relative viability,[3]; first compound 0.02 µM,0.8
same,relative viability,[3]; first compound 0.2 µM,0.47
same,relative viability,[3]; first compound 0.6325 µM,0.725
same,relative viability,[3]; first compound 2 µM,0.444
same,relative viability,[4]; first compound 0.02 µM,1.01
same,relative viability,[4]; first compound 0.2 µM,0.74
same,relative viability,[4]; first compound 0.6325 µM,0.84
same,relative viability,[4]; first compound 2 µM,0.715
same,relative viability,[5]; first compound 0.02 µM,0.659
same,relative viability,[5]; first compound 0.2 µM,0.698
same,relative viability,[5]; first compound 0.6325 µM,0.758
same,relative viability,[5]; first compound 2 µM,0.519
same,relative viability,[6]; first compound 0.02 µM,1.13
same,relative viability,[6]; first compound 0.2 µM,1.13
same,relative viability,[6]; first compound 0.6325 µM,1.17
same,relative viability,[6]; first compound 2 µM,1.14
CN1CCN(CCOc2cc(OC3CCOCC3)c3c(Nc4c(Cl)ccc5c4OCO5)ncnc3c2)CC1 [Saracatinib] + Cc1nc(Nc2ncc(C(=O)Nc3c(C)cccc3Cl)s2)cc(N2CCN(CCO)CC2)n1 [Dasatinib] (partner 0.075 µM),relative viability,[1]; first compound 0.02 µM,0.562
same,relative viability,[1]; first compound 0.2 µM,0.416
same,relative viability,[1]; first compound 0.6325 µM,0.468
same,relative viability,[1]; first compound 2 µM,0.406
same,relative viability,[2]; first compound 0.02 µM,0.716
same,relative viability,[2]; first compound 0.2 µM,0.703
same,relative viability,[2]; first compound 0.6325 µM,0.774
same,relative viability,[2]; first compound 2 µM,0.731
same,relative viability,[3]; first compound 0.02 µM,0.636
same,relative viability,[3]; first compound 0.2 µM,0.519
same,relative viability,[3]; first compound 0.6325 µM,0.723
same,relative viability,[3]; first compound 2 µM,0.33
same,relative viability,[4]; first compound 0.02 µM,0.558
same,relative viability,[4]; first compound 0.2 µM,0.659
same,relative viability,[4]; first compound 0.6325 µM,0.607
same,relative viability,[4]; first compound 2 µM,0.57
same,relative viability,[5]; first compound 0.02 µM,0.398
same,relative viability,[5]; first compound 0.2 µM,0.327
same,relative viability,[5]; first compound 0.6325 µM,0.305
same,relative viability,[5]; first compound 2 µM,0.295
same,relative viability,[6]; first compound 0.02 µM,0.494
same,relative viability,[6]; first compound 0.2 µM,0.283
same,relative viability,[6]; first compound 0.6325 µM,0.389
same,relative viability,[6]; first compound 2 µM,0.289
